Consider 8 molecules from PMC9405727, “A Setmelanotide-like Effect at MC4R Is Achieved by MC4R Dimer Separation” (Biomolecules, 2022).

Entries after “also recorded” stand apart in the source; their conditions may differ.

The test system of experiment [1] is MC4R/CB1R chimeric receptors. As to conditions: COS-7 cells; cited from earlier work. The procedure:
Results were based on cAMP accumulation assays in COS-7 cells. […] Experiments were performed using GloSensor^TM assay enabling dynamic live cell measurement of cAMP increase. In order to compare the results of this study with results previously achieved in COS-7 cells, we used the same ...

The test system of the next experiment is HEK293 cells. The experiment can be described thus: GloSensor cAMP accumulation, isoproterenol internal control in transfected cells. The class given is cell-based, human. The procedure:
Gs signaling was measured using cAMP assay GloSensor™, enabling real-time measurements of cAMP accumulation. HEK293 cells were transfected with either MC4R-WT or chimeric receptors. […] Non-PTX-treated cells received 10 µL MEM without supplements (Gibco Minimum Essential Media, Waltham, MA, USA) per well at the same time point. Bioluminescence was quantified using a Berthold Microplate Reader (Mithras LB940, Berthold Technologies GmbH and Co., Bad Wildbad, Germany). […] Cells stimulated with 1 µM isoproterenol served as an internal control. GloSensor™ results were expressed as relative luminescence units (RLU). The total cAMP formation was assessed in the time–response curve by calculating the area under the curve (AUC).
On the technique in general: Cyclic AMP is a second messenger, typically raised through Gs and lowered through Gi signalling.

A further experiment has as its target MC4R-WT (Homo sapiens, UniProt P32245). The experiment can be described thus: NFAT luciferase reporter gene assay (PLC activation, Gq/11 signaling), MC4R-WT. As to conditions: MC4R-WT + PTX (50 ng/mL, 18 h before stimulation), HEK293; mean ± SEM, two to nine experiments.
The next experiment has as its target T1, MC4R-H158R (Homo sapiens, UniProt P32245, H158R).
T1 construct: expressed in transfected cells; host or cells: HEK293
The experiment can be described thus: NFAT luciferase reporter gene assay (PLC activation, Gq/11 signaling), H158R. The class given is cell-based. A general note: A reporter such as luciferase makes a cellular process visible.

Experiment [2] deals with receptor-receptor interaction (WT, Chim 7, H158R, CB1R). In words: Donor saturation assay (DSA, NanoBRET), specificity of receptor-receptor interaction. As to conditions: for Bmax: DSA; for specificity of homodimer interaction: donor saturation assay, HEK293. It is filed as cell-based, human. The procedure:
The interaction between MC4R-WT, CB1R, and the chimeric receptors was determined using NanoBRET™ (Promega, Mannheim, Germany). The receptors were either C-terminally tagged with HaloTag (HT) as an energy acceptor or C-terminally fused with NanoLuc (NL) as an energy donor. Then, 20 h after transfection, cells were detached from the wells and centrifuged at 130× g for 5 min and the pellet was resuspended in Opti-MEM (Gibco) without phenol red, supplemented with 4% FBS (Gibco). […] The cells were then reseeded into white opaque 96-well plates (Corning, Costar) and incubated for 4–6 h at 37° and 5% CO2. […] The BRET Ratio was calculated by dividing acceptor emission by donor emission. In order to correct for background bleedthrough, the background ratio (no acceptor DMSO control) was subtracted, and the unit was changed into miliBRET (mBU).
Supplements S1: Donor Saturation Assays (DSA) investigating the specificity of receptor-receptor interaction of WT, Chim7 and H158R.
Figure S1: Donor Saturation Assays (DSA) investigating the specificity of receptor-receptor interaction of WT, Chim7 and H158R. HEK293 cells were transfected with increasing amounts of acceptor while the amount of donor was held constant. A receptor interaction is called specific, if a saturation level (Bmax) can be achieved. This is represented by a […]
hyperbolic curve. […] WT-MC4R […]
served as positive control, CB1R was included as negative control as it is known not to […]
receptor interaction, represented by the black hyperbolic curve. The negative controls depict flat behavior. (B) Homodimerization of Chim 7 is depicted next to WT-MC4R homodimer formation. Interaction of Chim7 NL with CB1R HT served as negative control.
(C) Homodimerization of H158R is depicted next to positive and negative control. […] Data […]
represent three independent experiments each performed in triplicates. Values represent
In general terms: In BRET a luciferase serves as donor, and the signal depends on an acceptor being close.

Experiment [3] has as its system receptor homodimer (MC4R-WT, CB1R, Chim 1-7, H158R). The experiment can be described thus: NanoBRET receptor homodimerization (BRET ratio, ΔBRET). The note with it: for Relative Dimerization Compared to WT: NanoBRET data from Figure 2 (ΔBRET = chimera minus MC4R-WT), HEK293, no agonist, three independent experiments in triplicate; for homodimerization compared to MC4R-WT: NanoBRET, HEK293, n = 3 in triplicate; for nanoBRET rations, mean: difference to WT+WT, mean of the replicates.
Description: Cells were maintained in minimal essential medium (MEM, Gibco, Waltham, MA, USA) supplemented with 5% fetal bovine serum (FBS, Gibco, Waltham, MA, USA) and NEAA incubated at 37 °C in humidified air containing 5% CO2. For the BRET assays, 4 × 10^5 HEK293 cells per well were seeded in 6-well plates for transfection.
For BRET assays, HEK293 cells were transfected 4–6 h after seeding. Transfection was performed using 8 µL FuGene HD (Promega, Mannheim, Germany) and 1.4 µg DNA in Opti-MEM (Gibco, Waltham, MA, USA). […] In addition, 200 ng Carrier DNA (pGEM3Z) was added.
For graphical depiction the delta BRET was calculated (3) ΔBRET=BRETRatiochimeric receptor−BRETRatioWT−MC4R

The target of experiment [4] is MC4R/CB1R chimeric receptor Chim 5 (substitution of ICL2) (UniProt P32245). The experiment can be described thus: FRET or BRET; NanoBRET in living HEK293 cells co-transfected with a NanoLuc fusion (donor; written as binder) and a HaloTag fusion (acceptor, ligand 618; written as target), NL/HT DNA ratio 1:5; BRET ratio in mBU after subtraction of the no-acceptor control; delta BRET = chimera minus MC4R-WT homodimer.

Usually Emax stands for the maximal effect, on the per cent scale that the assay sets.

T1 sequence (P32245 whole entry H158R): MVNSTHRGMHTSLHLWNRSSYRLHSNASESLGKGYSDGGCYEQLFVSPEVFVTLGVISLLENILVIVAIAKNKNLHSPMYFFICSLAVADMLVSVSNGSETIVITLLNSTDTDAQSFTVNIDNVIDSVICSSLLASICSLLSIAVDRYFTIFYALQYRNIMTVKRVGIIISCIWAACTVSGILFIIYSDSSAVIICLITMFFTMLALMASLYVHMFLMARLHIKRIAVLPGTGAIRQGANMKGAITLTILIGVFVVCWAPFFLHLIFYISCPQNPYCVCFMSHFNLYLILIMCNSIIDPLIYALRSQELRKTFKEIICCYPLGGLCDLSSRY
Chain of MC4R-WT (P32245 whole entry): as the sequence (P32245 whole entry H158R) above, with R158H counted along it

On to “4-Norleucine, 7-D-phenylalanine-alpha-melanocyte-stimulating hormone [NDP-alpha-MSH]”, for which the “stimulated cAMP levels of chimeric receptors compared to MC4R-WT” value in experiment [1] is “higher”.

For `CC(C)NCC(O)c1ccc(O)c(O)c1` (centres unmarked) [Isop, isoproterenol], the “cAMP AUC” value was 1461897 in the experiment on HEK293 cells (cells transfected with Chim5, 1 µM isoproterenol, Assay 1); 430167 in the experiment with HEK293 cells (cells transfected with Chim5, 1 µM isoproterenol, Assay 2); 324823 with HEK293 cells (cells transfected with Chim5, 1 µM isoproterenol, Assay 3); 256187 with HEK293 cells (cells transfected with Chim5, 1 µM isoproterenol, Assay 4); 1327867 in the experiment with HEK293 cells (cells transfected with Chim6, 1 µM isoproterenol, Assay 1); 379487 in the experiment with HEK293 cells (cells transfected with Chim6, 1 µM isoproterenol, Assay 2). Besides, the “cAMP AUC” value in the experiment on HEK293 cells (cells transfected with Chim6, 1 µM isoproterenol, Assay 3) came to 230900; in the experiment with HEK293 cells (cells transfected with Chim6, 1 µM isoproterenol, Assay 4) it was 310727; with HEK293 cells (cells transfected with Chim7, 1 µM isoproterenol, Assay 1), 786920; in the experiment on HEK293 cells (cells transfected with Chim7, 1 µM isoproterenol, Assay 2), 473207; with HEK293 cells (cells transfected with Chim7, 1 µM isoproterenol, Assay 3), 236040; in the experiment with HEK293 cells (cells transfected with Chim7, 1 µM isoproterenol, Assay 4) it was 192750. Further, the “cAMP AUC” value in the experiment on HEK293 cells (cells transfected with WT, 1 µM isoproterenol, Assay 1) is listed as 803127; in the experiment with HEK293 cells (cells transfected with WT, 1 µM isoproterenol, Assay 2), 589360; with HEK293 cells (cells transfected with WT, 1 µM isoproterenol, Assay 3), 380950; in the experiment with HEK293 cells (cells transfected with WT, 1 µM isoproterenol, Assay 4), 376050.

For the molecule `CC(=O)N[C@@H](CCCNC(=N)N)C(=O)N[C@H]1CSSC[C@@H](C(N)=O)NC(=O)[C@H](Cc2c[nH]c3ccccc23)NC(=O)[C@H](CCCNC(=N)N)NC(=O)[C@@H](Cc2ccccc2)NC(=O)[C@H](Cc2c[nH]cn2)NC(=O)[C@@H](C)NC1=O` [Setmelanotide], the “Emax at 1 µM” value at MC4R-WT is 70.26 ± 9.13 Fold over MC4R-WT Stimulated 1 µM; on MC4R-H158R (HEK293, H158R, 6 h at 37 °C, mean ± SEM, n = 4), 135.93 ± 17.16 Fold over MC4R-WT Stimulated 1 µM. Moreover, at MC4R-H158R (bias Setmelanotide calculation), the Emax is recorded as 135.93%.

On to “H158R: MC4R gain-of-function mutation located in ICL2 [Chim H158R]”, for which the Bmax in experiment [2] (HEK293, run 20211107) came to 109.9; in experiment [2] (HEK293, run 20211130) it was 119.8; in experiment [2] (HEK293, run 20211202), 137.4. Further, the “specificity of homodimer interaction” value in experiment [2] is “shows specific homodimer formation; also recorded: specific interaction”. The “Relative Dimerization Compared to WT” value in experiment [3] is −28.94. Moreover, the “homodimerization compared to MC4R-WT” value in experiment [3] is “significantly impaired dimerization capacities”. Besides, the “nanoBRET rations, mean” value in experiment [3] is given as -28.94.

MC4R-WT+MC4R-WT: the “nanoBRET rations, mean” value in experiment [3] was determined as 0.000667.

Take “MC4R-WT: wild-type melanocortin 4 receptor”: the Bmax in experiment [2] (HEK293, run 20210820) worked out at 129.2; in experiment [2] (HEK293, run 20210901), 118.3; in experiment [2] (HEK293, run 20210903), 124.8; in experiment [2] (HEK293, run 20210929) it was 127.1; in experiment [2] (HEK293, run 20211101), 143.5; in experiment [2] (HEK293, run 20211107), 109. The Bmax was 120.4 in experiment [2] (HEK293, run 20211130); 130.7 in experiment [2] (HEK293, run 20211202); 122.3 in experiment [2] (HEK293, run 20211217). The “specificity of homodimer interaction” value in experiment [2] is “specific interaction”. For the same molecule, the “Relative Dimerization Compared to WT” value in experiment [3] turned out to be 0.

As for “MC4R/CB1R chimeric receptor Chim 5 (substitution of ICL2) (from UniProt P32245 1-332)”, the Relative Dimerization Compared to WT (delta BRET) in experiment [4] was -41.8.

B1: CB1R: cannabinoid receptor type 1, negative control (protein)
chain: MKSILDGLADTTFRTITTDLLYVGSNDIQYEDIKGDMASKLGYFPQKFPLTSFRGSPFQEKMTAGDNPQLVPADQVNITEFYNKSLSSFKENEENIQCGENFMDIECFMVLNPSQQLAIAVLSLTLGTFTVLENLLVLCVILHSRSLRCRPSYHFIGSLAVADLLGSVIFVYSFIDFHVFHRKDSRNVFLFKLGGVTASFTASVGSLFLTAIDRYISIHRPLAYKRIVTRPKAVVAFCLMWTIAIVIAVLPLLGWNCEKLQSVCSDIFPHIDETYLMFWIGVTSVLLLFIVYAYMYILWKAHSHAVRMIQRGTQKSIIIHTSEDGKVQVTRPDQARMDIRLAKTLVLILVVLIICWGPLLAIMVYDVFGKMNKLIKTVFAFCSMLCLLNSTVNPIIYALRSKDLRHAFRSMFPSCEGTAQPLDNSMGDSDCLHKHANNAASVHRAAESCIKSTVKIAKVTMSVSTDTSAEAL
modifications: left off: NanoLuc, C-terminal, kept | HaloTag, C-terminal, kept
On to B1, for which the “homodimerization compared to MC4R-WT” value in experiment [3] is on record as “decreased”.
